Measured values: patent publication US11198869B2, “Angelman syndrome antisense treatment” (The Texas A&M University System, priority 2017, dated 2021)

Tested on: UBE3A-AS
Assay: UBE3A-AS steady state RNA dose response in Angelman syndrome iPSC-derived neurons
Format: cell-based, human
Settings: for IC50: six days following treatment, 10-point dose curve, read-out: potency (IC50), UBE3A-AS
Protocol: The steady state RNA levels of target transcripts were measured using TaqMan quantitative reverse-transcription PCR (qRT-PCR) assays. Total reaction volume was 10 uL, including 2 μl of cDNA, 1× Gene Expression Master mix (4369016, Thermo Fisher Scientific, Waltham, Mass.), and 1× TaqMan primer assay (Thermo Fisher Scientific). Cycling conditions were 2 minutes at 50° C., 10 minutes at 95° C., and 40 cycles of 15 seconds at 95° C. and 1 minute at 60° C., with readings taken at the 60° C. step of every cycle. Reactions were run on a BIO-RAD T1000 CFX96 thermocycler (Bio-Rad Laboratories, Hercules Calif.), with internal control (PPIA, Hs99999904_m1, Thermo Fisher Scientific) and target [UBE3A-AS, Hs01372957_m1; SNORD116-11, Hs04275268_gH; SNORD115, Hs04275288_gH; IPW, Hs03455409_s1; SNORD109A/B, AP47WVR (Thermo Fisher Scientific); UBE3A: forward […] (SEQ ID NO:500); reverse: […] (SEQ ID NO:501); and, probe: […] (SEQ ID NO:502)] reactions performed together. Data was retrieved and analyzed with the BIORAD CFX Maestro software (Bio-Rad Laboratories). Samples with internal control Cq values ≥30 were filtered. Quality of data was visually inspected to identify discrepancies between technical and/or plate replicates. Measurements for inferential statistics and descriptive statistics consist of ΔΔCq values (2^−ΔΔCq=2^−(Cq[target]−Cq[internal control])−(Cq[target]−Cq[internal control])).
The potencies of […] and ASO-4.4.PS.L were then examined in iPSC derived-neurons from an Angelman syndrome patient with a maternal derived deletion of the 15q11-q13 region. Induced pluripotent stem cells were differentiated into neurons and then treated with a 10-point ½ log dose response curve of ASO-6.1.PO-1.O and ASO-4.4.PS.L [1 nM, 3 nM, 10 nM, 30 nM, 100 nM, 300 nM, 1 μM, 3 μM, 10 μM, and 30 μM (n=3)]. Six days following treatment, the steady state RNA levels of UBE3A-AS were measured and dose response curves were fitted as described above (FIG. 9A). […] The Emax values were similar (30 μM: ASO-4.4.PS.L=0.01±0.0007; ASO-6.1.PO-1.O=0.05±0.004) but not considered equivalent due to the confidence intervals [ASO-6.1.PO-1.O/ASO-4.4.PS.L Emax ratio: =−9.1 (Lower confidence limit=−224; Upper confidence limit=205)].
Angelman syndrome induced pluripotent stem cells derived neurons Angelman syndrome iPS cells (AG1-0 iPSCs) (ECN001, Kerafast, Boston, Mass.) were co-cultured on irradiated murine embryonic fibroblasts in human embryonic stem cell medium [DMEM/F12 (11330-057, Gibco Biosciences, Dublin, Ireland), 20% Knockout Serum Replacement (10828-028, Thermo Fisher Scientific), 1× Non-essential amino acids, 2 mM L-glutamine, […] 2-Mercaptoethanol, and 4 μg/mL basic Fibroblast Growth Factor]. For the first passage, AG1-0 cells were passaged according to the product manual for PluriSTEM Human ES/iPS Medium (SCM130, Millipore Sigma, Burlington, Mass.), which is feeder-free and utilizes Dispase II (SCM133, Millipore Sigma) to dissociate cells. Matrigel™ hESC-qualified Matrix (354277, Corning BD Biosciences, Corning, N.Y.) was used as an extracellular matrix. At the second passage, the matrix was switched to vitronectin (CC130, Millipore Sigma). During subsequent passages, areas of differentiation were manually removed until differentiated cells represented approximately <5% of the colonies. After four subsequent passages, AG1-0 cells were differentiated using the Millipore ES/iPS Neurogenesis Kit (SCR603, SCM110, and SCM111) but lacking vitronectin as an extracellular matrix. The initial passage was performed with EZ-LiFT (SCM139, Millipore Sigma) to obtain high quality iPS cells. Neural progenitor cells were frozen at stage zero (P0) and subsequently thawed for differentiation. Differentiation was performed on sterile culture plates coated with poly-D-lysine (10 μg/mL) and laminin [10 μg/mL (23017-015, Gibco) in differentiation medium (SCM111) for 10 days of differentiation. […]

Substance	Emax, normalized UBE3A-AS RNA level at 30 μM	ASO-6.1.PO-1.O/ASO-4.4.PS.L Emax ratio (equivalence test)	ASO-6.1.PO-1.O/ASO-4.4.PS.L IC50 ratio (equivalence test)	IC50	fold more potent than ASO-6.1.PO-1.O
C^O*U^O*G^O*G^O-t*g*t*c*a*a*c*a*a*g-C^O*C^O*A^O*A^o [ASO-6.1.PO-1.O]	0.05±0.004	−9.1	0.96	1220 nM	–
A^L*G^L*A^L*a*t*g*g*c*a*c*a*t*c*t*5mC^L*T^L*T^L*G^L (NNNATGGCACATCTNNNN; LNA gapmer, PS, 5-methylcytosine, chemistry not fully specified) [ASO-4.4.PS.L]	0.01±0.0007	–	–	437 nM	approximately 2.7 fold
